Measured values as given in patent publication US20260166039A1 (SCHRÖDINGER, INC., priority 2022, published 2026).

Experiments:
[1] = system: phosphorylation of Cdc2 Y15 (Wee1 substrate) in A427 cells; experiment: Phosphorylated Cdc2 MSD Electrochemiluminescence Assay; format: cell-based; conditions: Homo sapiens, A-427, class symbols, read-out: A427 pCDC2 MSD IC50
Summary of the method: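 Read-out: percent residual phospho-Cdc2 Y15 relative to DMSO and positive-control Wee1 inhibitor, measured by MSD electrochemiluminescence capture/detection antibody assay in cell lysates. A427 cells received duplicate 3-fold compound dilution series 20 h post-seeding, with 6 h total incubation at 37 °C.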

Wee1 kinase domain = biological target: T1, Wee1 kinase domain (Homo sapiens, UniProt P30291); experiment: Wee1 Kinase Biochemical Assay (ADP-Glo); conditions: class symbols; 1 nM Wee1 enzyme, 15 uM ATP, 4 hours at 25° C.
T1 construct: Wee1 kinase domain was purchased from Carna (catalog #05-177); purchased Carna 05-177
Summary of the method: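 The reaction mix held 1 nM Wee1 kinase domain, 15 uM ATP and 2 ng/mL Poly(Lys,Tyr 4:1) substrate and was left for 4 hours at 25 °C. ADP production was then measured with ADP-Glo, and percent inhibition was derived relative to DMSO and a saturating Wee1 inhibitor.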

T1 sequence (P30291 299-569 limits assumed): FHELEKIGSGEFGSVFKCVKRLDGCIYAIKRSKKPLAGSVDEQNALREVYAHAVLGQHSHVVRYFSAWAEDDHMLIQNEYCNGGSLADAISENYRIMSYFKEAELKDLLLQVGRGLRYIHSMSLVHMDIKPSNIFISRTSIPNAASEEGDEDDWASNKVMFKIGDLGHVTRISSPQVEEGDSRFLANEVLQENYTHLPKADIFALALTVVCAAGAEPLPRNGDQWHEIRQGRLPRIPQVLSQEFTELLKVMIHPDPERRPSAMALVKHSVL

IC50 [1] | IC50 (Wee1 kinase domain) | SMILES
100 to 1000 nM | < 10 nM | CNCc1cccc(N2c3nc(Nc4ccc(N5CCOC[C@H]5C)cc4)ncc3[C@@]3(C)COC(C)(C)C[C@@H]23)n1 (single isomer, unassigned) [Example 473]
100 to 1000 nM | < 10 nM | CNCc1cccc(N2c3nc(Nc4ccc(N5CCOC[C@@H]5C)cc4)ncc3[C@@]3(C)COC(C)(C)C[C@@H]23)n1 (single isomer, unassigned) [Example 476]
< 100 nM | < 10 nM | CN1CCN(c2cncc(Nc3ncc4c(n3)N(c3cccc(N=S(C)(C)=O)n3)[C@@H]3CC(C)(C)OC[C@]43C)c2)CC1 (single isomer, unassigned) [Example 483]
< 100 nM | < 10 nM | Cn1cc(Nc2ncc3c(n2)N(c2cccc(N=S(C)(C)=O)n2)[C@@H]2CC(C)(C)OC[C@]32C)cn1 (single isomer, unassigned) [Example 484]
100 to 1000 nM | < 10 nM | CN1CCC(c2cncc(Nc3ncc4c(n3)N(c3cccc(N=S(C)(C)=O)n3)[C@@H]3CC(C)(C)OC[C@]43C)c2)CC1 (single isomer, unassigned) [Example 485]
< 100 nM | < 10 nM | CN1CCN(c2cccc(Nc3ncc4c(n3)N(c3cccc(N=S(C)(C)=O)n3)[C@@H]3CC(C)(C)OC[C@]43C)c2)CC1 (single isomer, unassigned) [Example 486]
100 to 1000 nM | < 10 nM | CC1(C)C[C@H]2N(c3cccc(N=S(C)(C)=O)n3)c3nc(Nc4cnn(C(F)F)c4)ncc3[C@@]2(C)CO1 (single isomer, unassigned) [Example 487]
100 to 1000 nM | < 10 nM | CC1(C)C[C@H]2N(c3cccc(N=S(C)(C)=O)n3)c3nc(Nc4cnn(C(F)(F)F)c4)ncc3[C@@]2(C)CO1 (single isomer, unassigned) [Example 488]
100 to 1000 nM | < 10 nM | Cn1ncc(Nc2ncc3c(n2)N(c2cccc(N=S(C)(C)=O)n2)[C@@H]2CC(C)(C)OC[C@]32C)c1F (single isomer, unassigned) [Example 490]
100 to 1000 nM | < 10 nM | Cc1ccc(Nc2ncc3c(n2)N(c2cccc(N=S(C)(C)=O)n2)[C@@H]2CC(C)(C)OC[C@]32C)cn1 (single isomer, unassigned) [Example 491]
< 100 nM | < 10 nM | Cc1cncc(Nc2ncc3c(n2)N(c2cccc(N=S(C)(C)=O)n2)[C@@H]2CC(C)(C)OC[C@]32C)c1 (single isomer, unassigned) [Example 492]
100 to 1000 nM | < 10 nM | CC1(C)C[C@H]2N(c3cccc(N=S(C)(C)=O)n3)c3nc(Nc4ccc(N5CCOCC5)nc4)ncc3[C@@]2(C)CO1 (single isomer, unassigned) [Example 493]
100 to 1000 nM | < 10 nM | CC1(C)C[C@H]2N(c3cccc(N=S(C)(C)=O)n3)c3nc(Nc4ccc(N5CC6(CNC6)C5)cc4)ncc3[C@@]2(C)CO1 (single isomer, unassigned) [Example 494]
1000 to 10000 nM | < 10 nM | Cn1cc(Nc2ncc3c(n2)N(c2cccc(N=S(C)(C)=O)n2)[C@@H]2CC(C)(C)OC[C@]32C)ccc1=O (single isomer, unassigned) [Example 495]
100 to 1000 nM | < 10 nM | CC1(C)CC2N(c3cccc(N=S(C)(C)=O)n3)c3nc(Nc4ccc(N5CCOCC5)cc4)ncc3C2(C)CO1 (single isomer, unassigned) [Example 496]
100 to 1000 nM | < 10 nM | CC1(C)C[C@H]2N(c3cccc(N=S(C)(C)=O)n3)c3nc(Nc4ccc(N5C[C@@H]6C[C@H]5CO6)cc4)ncc3[C@@]2(C)CO1 (single isomer, unassigned) [Example 497]
100 to 1000 nM | < 10 nM | CC1(C)C[C@H]2N(c3cccc(N=S(C)(C)=O)n3)c3nc(Nc4ccc(N5C[C@H]6C[C@@H]5CO6)cc4)ncc3[C@@]2(C)CO1 (single isomer, unassigned) [Example 498]
< 100 nM | < 10 nM | C[C@@H]1CN(c2ccc(Nc3ncc4c(n3)N(c3cccc(N=S(C)(C)=O)n3)[C@@H]3CC(C)(C)OC[C@]43C)cc2)CCN1C (single isomer, unassigned) [Example 499]
< 100 nM | < 10 nM | C[C@H]1CN(c2ccc(Nc3ncc4c(n3)N(c3cccc(N=S(C)(C)=O)n3)[C@@H]3CC(C)(C)OC[C@]43C)cc2)CCN1C (single isomer, unassigned) [Example 500]
< 100 nM | < 10 nM | CN1CCCN(c2ccc(Nc3ncc4c(n3)N(c3cccc(N=S(C)(C)=O)n3)[C@@H]3CC(C)(C)OC[C@]43C)cc2)CC1 (single isomer, unassigned) [Example 501]
< 100 nM | < 10 nM | CN1CC[C@@H]2CN(c3ccc(Nc4ncc5c(n4)N(c4cccc(N=S(C)(C)=O)n4)[C@@H]4CC(C)(C)OC[C@]54C)cc3)C[C@@H]21 (single isomer, unassigned) [Example 502]
< 100 nM | < 10 nM | CN1CC[C@H]2CN(c3ccc(Nc4ncc5c(n4)N(c4cccc(N=S(C)(C)=O)n4)[C@@H]4CC(C)(C)OC[C@]54C)cc3)C[C@H]21 (single isomer, unassigned) [Example 503]
100 to 1000 nM | < 10 nM | CC1(C)C[C@H]2N(c3cccc(N=S(C)(C)=O)n3)c3nc(Nc4ccc5nccn5c4)ncc3[C@@]2(C)CO1 (single isomer, unassigned) [Example 504]
100 to 1000 nM | < 10 nM | CC1(C)C[C@H]2N(c3cccc(N=S(C)(C)=O)n3)c3nc(Nc4ccc(N5CCN6CCC[C@@H]6C5)cc4)ncc3[C@@]2(C)CO1 (single isomer, unassigned) [Example 505]
100 to 1000 nM | < 10 nM | Cn1cc(Nc2ncc3c(n2)N(c2cccc(N=S(C)(C)=O)n2)[C@@H]2CC(C)(C)OC[C@]32C)nn1 (single isomer, unassigned) [Example 514]
100 to 1000 nM | < 10 nM | CN1C[C@H]2C[C@@H]1CN2c1ccc(Nc2ncc3c(n2)N(c2cccc(C4(O)COC4)n2)[C@@H]2CC(C)(C)OC[C@]32C)cc1 (single isomer, unassigned) [Example 517]
100 to 1000 nM | < 10 nM | CN1C[C@@H]2C[C@H]1CN2c1ccc(Nc2ncc3c(n2)N(c2cccc(C4(O)COC4)n2)[C@@H]2CC(C)(C)OC[C@]32C)cc1 (single isomer, unassigned) [Example 518]
100 to 1000 nM | < 10 nM | CN1C[C@@H]2C[C@H]1CN2c1ccc(Nc2ncc3c(n2)N(c2ccn(C)n2)[C@@H]2CC(C)(C)OC[C@]32C)cc1 (single isomer, unassigned) [Example 519]

SMILES | IC50 [1] | IC50 (Wee1 kinase domain)
CNCc1cccc(N2c3nc(Nc4ccc(N5[C@@H]6COC[C@H]5C6)cc4)ncc3[C@@]3(C)COC(C)(C)C[C@@H]23)n1 (single isomer, unassigned) [Example 479] | 100 to 1000 nM | < 10 nM
CNCc1cccc(N2c3nc(Nc4ccc(N5C[C@H]6C[C@@H](C5)O6)cc4)ncc3[C@@]3(C)COC(C)(C)C[C@@H]23)n1 (single isomer, unassigned) [Example 481] | 100 to 1000 nM | < 10 nM
CN1[C@@H]2C[C@H]1CN(c1ccc(Nc3ncc4c(n3)N(c3cccc(N=S(C)(C)=O)n3)[C@@H]3CC(C)(C)OC[C@]43C)cc1)C2 (single isomer, unassigned) [Example 506] | 100 to 1000 nM | < 10 nM
